According to the NIST ThermoML archive (doi:10.1016/j.jct.2012.06.031):

Assay: xn = mol fraction of the nth substance listed
Settings: 101 kPa, Liquid; for viscosity: Concentric cylinders viscometry; for mass density: Vibrating tube method

OCCCO [propan-1,3-diol] + c1ccncc1
Settings	mass density [kg/m3]	viscosity [mPa·s]
288.15 K, x2 = 0	1056.12	66.53
288.15 K, x2 = 0.0999	1050.49	50.57
288.15 K, x2 = 0.2	1044.96	35.44
288.15 K, x2 = 0.3	1038.93	23
288.15 K, x2 = 0.4001	1032.58	14.29
288.15 K, x2 = 0.5	1025.96	8.708
288.15 K, x2 = 0.5999	1018.97	5.207
288.15 K, x2 = 0.7	1011.77	3.264
288.15 K, x2 = 0.7998	1004.3	2.111
288.15 K, x2 = 0.8998	996.608	1.46
293.15 K, x2 = 0	1053.02	51.91
293.15 K, x2 = 0.0999	1047.19	39.57
293.15 K, x2 = 0.2	1041.48	27.99
293.15 K, x2 = 0.3	1035.25	18.46
293.15 K, x2 = 0.4001	1028.71	11.68
293.15 K, x2 = 0.5	1021.91	7.266
293.15 K, x2 = 0.5999	1014.73	4.467
293.15 K, x2 = 0.7	1007.35	2.869
293.15 K, x2 = 0.7998	999.687	1.897
293.15 K, x2 = 0.8998	991.803	1.336
298.15 K, x2 = 0	1049.91	41.04
298.15 K, x2 = 0.0999	1043.89	31.39
298.15 K, x2 = 0.2	1037.98	22.36
298.15 K, x2 = 0.3	1031.55	14.91
298.15 K, x2 = 0.4001	1024.82	9.617
298.15 K, x2 = 0.5	1017.85	6.147
298.15 K, x2 = 0.5999	1010.48	3.867
298.15 K, x2 = 0.7	1002.91	2.54
298.15 K, x2 = 0.7998	995.061	1.715
298.15 K, x2 = 0.8998	986.987	1.228
303.15 K, x2 = 0	1046.79	32.84
303.15 K, x2 = 0.0999	1040.57	25.21
303.15 K, x2 = 0.2	1034.47	18.15
303.15 K, x2 = 0.3	1027.85	12.34
303.15 K, x2 = 0.4001	1020.93	8.079
303.15 K, x2 = 0.5	1013.76	5.244
303.15 K, x2 = 0.5999	1006.21	3.38
303.15 K, x2 = 0.7	998.466	2.266
303.15 K, x2 = 0.7998	990.425	1.557
303.15 K, x2 = 0.8998	982.158	1.132
308.15 K, x2 = 0	1043.64	26.58
308.15 K, x2 = 0.0999	1037.24	20.48
308.15 K, x2 = 0.2	1030.94	14.88
308.15 K, x2 = 0.3	1024.12	10.26
308.15 K, x2 = 0.4001	1017.01	6.845
308.15 K, x2 = 0.5	1009.66	4.549
308.15 K, x2 = 0.5999	1001.93	2.976
308.15 K, x2 = 0.7	994	2.033
308.15 K, x2 = 0.7998	985.773	1.424
308.15 K, x2 = 0.8998	977.312	1.05
313.15 K, x2 = 0	1040.49	21.74
313.15 K, x2 = 0.0999	1033.89	16.82
313.15 K, x2 = 0.2	1027.39	12.32
313.15 K, x2 = 0.3	1020.38	8.615
313.15 K, x2 = 0.4001	1013.08	5.832
313.15 K, x2 = 0.5	1005.55	3.951
313.15 K, x2 = 0.5999	997.629	2.636
313.15 K, x2 = 0.7	989.518	1.835
313.15 K, x2 = 0.7998	981.102	1.307
313.15 K, x2 = 0.8998	972.452	0.975
318.15 K, x2 = 0	1037.31	17.95
318.15 K, x2 = 0.0999	1030.51	13.94
318.15 K, x2 = 0.2	1023.82	10.31
318.15 K, x2 = 0.3	1016.62	7.299
318.15 K, x2 = 0.4001	1009.13	5.033
318.15 K, x2 = 0.5	1001.41	3.455
318.15 K, x2 = 0.5999	993.305	2.35
318.15 K, x2 = 0.7	985.015	1.663
318.15 K, x2 = 0.7998	976.412	1.204
318.15 K, x2 = 0.8998	967.572	0.9082
323.15 K, x2 = 0	1034.12	14.96
323.15 K, x2 = 0.0999	1027.12	11.75
323.15 K, x2 = 0.2	1020.24	8.779
323.15 K, x2 = 0.3	1012.83	6.286
323.15 K, x2 = 0.4001	1005.15	4.412
323.15 K, x2 = 0.5	997.251	3.078
323.15 K, x2 = 0.5999	988.961	2.139
323.15 K, x2 = 0.7	980.49	1.53
323.15 K, x2 = 0.7998	971.701	1.119
323.15 K, x2 = 0.8998	962.672	0.8532

CC(O)CO (stereo not given) [1,2-propanediol] + c1ccncc1
Settings	mass density [kg/m3]	viscosity [mPa·s]
288.15 K, x2 = 0	1040.08	81.21
288.15 K, x2 = 0.1	1035.59	52.73
288.15 K, x2 = 0.2	1030.94	33
288.15 K, x2 = 0.2999	1026.33	20.08
288.15 K, x2 = 0.4	1021.39	12.08
288.15 K, x2 = 0.4999	1016.46	7.326
288.15 K, x2 = 0.6	1011.23	4.547
288.15 K, x2 = 0.7001	1005.6	3
288.15 K, x2 = 0.8	999.698	1.935
288.15 K, x2 = 0.9	994.093	1.391
293.15 K, x2 = 0	1036.46	58.75
293.15 K, x2 = 0.1	1031.78	38.74
293.15 K, x2 = 0.2	1026.95	24.82
293.15 K, x2 = 0.2999	1022.18	15.55
293.15 K, x2 = 0.4	1017.12	9.643
293.15 K, x2 = 0.4999	1012.06	6.036
293.15 K, x2 = 0.6	1006.71	3.857
293.15 K, x2 = 0.7001	1000.96	2.588
293.15 K, x2 = 0.8	994.925	1.736
293.15 K, x2 = 0.9	989.201	1.274
298.15 K, x2 = 0	1032.8	43.44
298.15 K, x2 = 0.1	1027.92	29.09
298.15 K, x2 = 0.2	1022.93	19.05
298.15 K, x2 = 0.2999	1018.01	12.15
298.15 K, x2 = 0.4	1012.81	7.822
298.15 K, x2 = 0.4999	1007.63	5.021
298.15 K, x2 = 0.6	1002.16	3.31
298.15 K, x2 = 0.7001	996.296	2.292
298.15 K, x2 = 0.8	990.138	1.567
298.15 K, x2 = 0.9	984.298	1.171
303.15 K, x2 = 0	1029.09	32.75
303.15 K, x2 = 0.1	1024.03	22.28
303.15 K, x2 = 0.2	1018.88	14.9
303.15 K, x2 = 0.2999	1013.81	9.81
303.15 K, x2 = 0.4	1008.48	6.396
303.15 K, x2 = 0.4999	1003.18	4.234
303.15 K, x2 = 0.6	997.549	2.866
303.15 K, x2 = 0.7001	991.612	2.008
303.15 K, x2 = 0.8	985.331	1.425
303.15 K, x2 = 0.9	979.376	1.082
308.15 K, x2 = 0	1025.34	25.16
308.15 K, x2 = 0.1	1020.1	17.37
308.15 K, x2 = 0.2	1014.79	11.85
308.15 K, x2 = 0.2999	1009.58	7.981
308.15 K, x2 = 0.4	1004.12	5.363
308.15 K, x2 = 0.4999	998.699	3.638
308.15 K, x2 = 0.6	992.998	2.514
308.15 K, x2 = 0.7001	986.903	1.795
308.15 K, x2 = 0.8	980.506	1.301
308.15 K, x2 = 0.9	974.443	1.002
313.15 K, x2 = 0	1021.55	19.65
313.15 K, x2 = 0.1	1016.14	13.76
313.15 K, x2 = 0.2	1010.67	9.567
313.15 K, x2 = 0.2999	1005.32	6.581
313.15 K, x2 = 0.4	999.722	4.523
313.15 K, x2 = 0.4999	994.186	3.137
313.15 K, x2 = 0.6	988.375	2.218
313.15 K, x2 = 0.7001	982.171	1.613
313.15 K, x2 = 0.8	975.66	1.193
313.15 K, x2 = 0.9	969.488	0.9311
318.15 K, x2 = 0	1017.73	15.58
318.15 K, x2 = 0.1	1012.14	11.07
318.15 K, x2 = 0.2	1006.51	7.833
318.15 K, x2 = 0.2999	1001.02	5.495
318.15 K, x2 = 0.4	995.298	3.855
318.15 K, x2 = 0.4999	989.644	2.729
318.15 K, x2 = 0.6	983.722	1.972
318.15 K, x2 = 0.7001	977.41	1.459
318.15 K, x2 = 0.8	970.792	1.098
318.15 K, x2 = 0.9	964.514	0.8674
323.15 K, x2 = 0	1013.86	12.55
323.15 K, x2 = 0.1	1008.1	9.082
323.15 K, x2 = 0.2	1002.32	6.551
323.15 K, x2 = 0.2999	996.693	4.678
323.15 K, x2 = 0.4	990.839	3.349
323.15 K, x2 = 0.4999	985.073	2.416
323.15 K, x2 = 0.6	979.044	1.786
323.15 K, x2 = 0.7001	972.625	1.341
323.15 K, x2 = 0.8	965.9	1.022
323.15 K, x2 = 0.9	959.522	0.8177
